Where a SMILES comes first, the peptide text is derived from it. Bridges are numbered along the chain shown (N, C = ends). [ ]: non-standard residue; d: D form. The star is where a group is joined. Phe(3,5-F2) = N[C@@H](Cc1cc(F)cc(F)c1)C(=O)O; Heptenoyl(2E) = CCCC/C=C/C(=O)*; aThr = C[C@H](O)[C@H](N)C(=O)O; Pip = O=C(O)[C@@H]1CCCCN1

The results in this text go back to patent publication US20210171576A1, “METHODS FOR TREATING CANCER WITH ACYLDEPSIPEPTIDE ANALOGS” (priority 2018, published 2021).

Experiment [1] concerns the target T1, HsCIpP (Homo sapiens, UniProt Q16740, P57S).
T1 construct: 2x(His6-thrombin)-SUMO (N, cleaved yes); made in house; host or cells: E. coli (SG1146 stated for HsClpP; 'a similar protocol' for HsClpX)
In words: Protease activity assay (casein-FITC degradation) with ADEP, independent of HsCIpX. It counts as biochemical. To be noted: 3 μM HsCIpP, 10 μM casein-FITC, no HsCIpX; read-out: K0.5 (microscopic apparent dissociation constant), protease activity. On the procedure: The protease activity of purified HsCIpP was assessed by monitoring the degradation of bovine milk casein labelled with fluorescein isothiocyanate (casein-FITC) (Sigma-Aldrich) in the presence of ADEP and/or purified HsCIpX. All reactions were carried out in 25 mM HEPES, pH 7.5, 35 mM KCl, 25 mM MgCl2, 0.03% Tween-20, 10% glycerol, and 1 mM DTT, supplemented with 16 mM creatine phosphate and 300 μM ATP. HsCIpP was used at 3 μM (final monomeric concentration) and casein-FITC was added at the final concentration of 10 μM. 13 U of creatine phosphokinase (Sigma-Aldrich) was also added for ATP regeneration. DMSO was present at 1% (v:v) final concentration in the experiments that involve the use of ADEP analogs. All reactions were carried out with 150 μL of the reaction mix per well in a 96-well black flat-bottom plate at 37° C. Degradation of casein-FITC and subsequent release of the free FITC moiety was monitored by fluorescence with λex=494 nm and λem=518 nm using the EnSpire 2300 Multilabel Reader set to perform a reading every 40 s with 20 flashes. A total of 100 readings were collected in each experiment. […]
The effect of ADEP in activating HsCIpP was assessed via the degradation of casein-FITC by HsCIpP independent of HsCIpX. […] Initial rates data were collected and analyzed using the Hill equation above to determine Vmax, h and K0.5 for each ADEP analog. […]

Experiment [2] deals with HEK293 T-REx WT cells. In words: Western blots for HsCIpX and apoptotic protein markers. It is filed as cell-based, human. On the procedure:
Cells were harvested by the standard trypsinization protocol and counted with a hemocytometer. Cell lysates were prepared by first re-suspending the cells in PBS at 5×10^6 cells/mL, followed by sonication. Proteins in the lysates were analyzed by Western blotting using Immobilin-P PVDF membranes (EMD Millipore). Blots were imaged and analyzed with the ChemiDoc XRS+ System (BioRad). Quantification of HsCIpP expression was performed by densitometry using the Quantity One 1D Analysis Software (BioRad). HsCIpP expression levels were corrected for sample loading errors and normalized to the expression level in HEK293 T-REx WT. Primary antibodies for HsCIpP, HsCIpX and GAPDH were purchased from Abcam. Primary antibodies for Caspase-8, Caspase-9 and PUMA were purchased from Cell Signaling Technologies. The primary antibody for Caspase-3 was purchased from R&D Systems. Primary antibodies for Mcl-1 and Bcl-2 were purchased from EMD Millipore. The primary antibody for the FLAG-tag was purchased from Sigma-Aldrich. HRP-conjugated goat anti-rabbit IgG (for HsCIpX, Caspase-8, Caspase-9 and PUMA) and HRP-conjugated goat anti-mouse IgG (for HsCIpP, Mcl-1, Bcl-2, GAPDH and FLAG-tag) were purchased from BioRad. HRP-conjugated rabbit anti-goat IgG (for Caspase-3) was purchased from Sigma-Aldrich.

T1 sequence (Q16740 57-277 P57S): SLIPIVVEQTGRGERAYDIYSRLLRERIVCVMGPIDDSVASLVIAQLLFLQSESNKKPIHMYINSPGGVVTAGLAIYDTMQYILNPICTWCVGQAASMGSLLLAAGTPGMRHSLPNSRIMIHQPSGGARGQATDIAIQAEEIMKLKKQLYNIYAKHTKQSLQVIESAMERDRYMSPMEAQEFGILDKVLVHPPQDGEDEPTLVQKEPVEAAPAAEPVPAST

With `CCCC/C=C/C(=O)N[C@@H](Cc1cc(F)cc(F)c1)C(=O)N[C@@H]1C(=O)N2CCC[C@H]2C(=O)N2CCCC[C@H]2C(=O)N[C@@H](C)C(=O)N2CCC[C@H]2C(=O)O[C@H]1C` [ADEP-41] ({Heptenoyl(2E)}-[Phe(3,5-F2)][aThr]P[Pip]AP; ester 2-C), the Kd in experiment [1] is 120 nM. Besides, in experiment [2] (10 μM, 72 hours), the “activation-specific cleavage of Caspase-8” value is recorded as “no activation-specific cleavage was observed”; the “activation-specific cleavage of Caspase-9 and Caspase-3” value is given as “activation-specific cleavage was detected”; the “level of anti-apoptotic Bcl-2 protein” value is reported as “no change”. In addition, the HsCIpX level result in experiment [2] (20 μM 24 hours or 10 μM 72 hours) is on record as “no longer detected”. In experiment [2] (20 μM, 24 hours), the “activation-specific cleavage of Caspase-8, Caspase-9 or Caspase-3” value is reported as “no activation-specific cleavage was observed”; the “anti-apoptotic Mcl-1 protein” value is “degraded”; the “pro-apoptotic PUMA protein” value is reported as “significantly upregulated”.
